Laboratory results: patent US9637483B2, “Heterocyclic compound” (TAKEDA PHARMACEUTICAL COMPANY LIMITED, priority 2013, dated 2017)

How the values were obtained:
Assay type in all cases: biochemical
JAK3 = biological target: T1, JAK3 (Homo sapiens, UniProt P52333); assay: JAK3 enzyme inhibition test (LANCE method); details: 1 μM test compound; read-out: JAK3 enzyme inhibitory activity (%, 1 μM)
T1 construct: purchased Invitrogen
T1 sequence (P52333 1-1124): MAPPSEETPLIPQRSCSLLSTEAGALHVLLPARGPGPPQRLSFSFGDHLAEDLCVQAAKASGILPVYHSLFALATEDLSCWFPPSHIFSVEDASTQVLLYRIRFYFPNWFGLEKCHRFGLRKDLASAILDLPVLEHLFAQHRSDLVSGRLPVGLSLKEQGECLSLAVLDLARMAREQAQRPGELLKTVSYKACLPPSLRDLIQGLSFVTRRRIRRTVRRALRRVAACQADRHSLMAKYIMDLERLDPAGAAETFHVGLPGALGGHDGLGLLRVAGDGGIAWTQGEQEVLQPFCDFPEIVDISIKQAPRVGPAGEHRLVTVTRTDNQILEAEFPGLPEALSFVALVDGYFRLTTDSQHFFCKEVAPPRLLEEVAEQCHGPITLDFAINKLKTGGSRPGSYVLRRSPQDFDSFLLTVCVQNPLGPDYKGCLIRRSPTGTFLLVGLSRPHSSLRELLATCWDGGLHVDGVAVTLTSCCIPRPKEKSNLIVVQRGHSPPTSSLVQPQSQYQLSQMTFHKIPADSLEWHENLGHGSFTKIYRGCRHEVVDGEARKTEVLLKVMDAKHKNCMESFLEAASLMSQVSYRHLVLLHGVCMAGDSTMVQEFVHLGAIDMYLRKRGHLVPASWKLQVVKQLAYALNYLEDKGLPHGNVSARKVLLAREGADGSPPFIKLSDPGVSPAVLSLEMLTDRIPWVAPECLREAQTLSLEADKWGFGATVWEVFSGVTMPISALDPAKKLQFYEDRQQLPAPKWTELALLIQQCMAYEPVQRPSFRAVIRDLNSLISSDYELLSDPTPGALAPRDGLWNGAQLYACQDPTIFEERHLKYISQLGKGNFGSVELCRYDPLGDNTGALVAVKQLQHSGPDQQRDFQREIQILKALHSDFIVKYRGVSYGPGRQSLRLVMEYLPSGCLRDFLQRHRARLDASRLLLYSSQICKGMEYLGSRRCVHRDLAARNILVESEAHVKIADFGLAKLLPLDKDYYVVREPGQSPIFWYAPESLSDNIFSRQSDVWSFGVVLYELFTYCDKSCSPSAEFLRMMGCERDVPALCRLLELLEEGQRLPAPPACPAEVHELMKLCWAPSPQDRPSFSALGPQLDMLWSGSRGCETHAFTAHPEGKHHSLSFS
Protocol: (§1) JAK3 enzyme inhibitory activity of test compounds was measured by the LANCE method (PerkinElmer). First, a test compound diluted with assay buffer (50 mM HEPES (pH 7.5), 10 mM MgCl2, 1 mM EGTA, 2 mM DTT, 0.01% Tween20, 0.01% BSA) was added to a 384-well plate by 2 μL each. Then, a JAK3 (Invitrogen) solution and a fluorescence-labeled peptide substrate (ULight-JAK1, PerkinElmer) solution diluted with assay buffer to 12 ng/mL and 300 nM, respectively, were added by 2 μL each. Then, an enzyme reaction was started by adding 2 μL each of ATP solution prepared with assay buffer to 15 μM. After the reaction at room temperature for 1 hr, Detection Buffer (PerkinElmer) prepared to contain 20 mM EDTA, 4 nM europium-labeled anti-phosphotyrosine antibody (PerkinElmer) was added by 6 μL each. After standing at room temperature for 1 hr, fluorescence intensity (excitation wavelength 340 nm, fluorescence wavelength 665 nm, delay time 100 microseconds) was measured by a plate reader, Envision (PerkinElmer). The inhibitory activity of each compound was calculated as a relative activity value to the fluorescence intensity of a well free of enzyme as 100% inhibition.

TYK2 = biological target: T2, TYK2 (Homo sapiens, UniProt P29597); assay: TYK2 enzyme inhibition test (LANCE method); details: 1 μM test compound; read-out: TYK2 enzyme inhibitory activity (%, 1 μM)
T2 construct: purchased Invitrogen
Protocol: as §1, with “TYK2” for “JAK3”, “375” for “12”, “30” for “15”

JAK2 = biological target: T3, JAK2 (Homo sapiens, UniProt O60674); assay: JAK2 enzyme inhibition test (LANCE method); details: 1 μM test compound; read-out: JAK2 enzyme inhibitory activity (%, 1 μM)
T3 construct: purchased Invitrogen
Protocol: as §1, with “JAK2” for “JAK3”, “6” for “12”, “45” for “15”

JAK1 = biological target: T4, JAK1 (Homo sapiens, UniProt P23458); assay: JAK1 enzyme inhibition test (LANCE method); details: 1 μM test compound; read-out: JAK1 enzyme inhibitory activity (%, 1 μM)
T4 construct: purchased Invitrogen
Protocol: as §1, with “JAK1” for “JAK3”, “187.5” for “12”, “150” for “15”

T3 sequence (O60674 whole entry): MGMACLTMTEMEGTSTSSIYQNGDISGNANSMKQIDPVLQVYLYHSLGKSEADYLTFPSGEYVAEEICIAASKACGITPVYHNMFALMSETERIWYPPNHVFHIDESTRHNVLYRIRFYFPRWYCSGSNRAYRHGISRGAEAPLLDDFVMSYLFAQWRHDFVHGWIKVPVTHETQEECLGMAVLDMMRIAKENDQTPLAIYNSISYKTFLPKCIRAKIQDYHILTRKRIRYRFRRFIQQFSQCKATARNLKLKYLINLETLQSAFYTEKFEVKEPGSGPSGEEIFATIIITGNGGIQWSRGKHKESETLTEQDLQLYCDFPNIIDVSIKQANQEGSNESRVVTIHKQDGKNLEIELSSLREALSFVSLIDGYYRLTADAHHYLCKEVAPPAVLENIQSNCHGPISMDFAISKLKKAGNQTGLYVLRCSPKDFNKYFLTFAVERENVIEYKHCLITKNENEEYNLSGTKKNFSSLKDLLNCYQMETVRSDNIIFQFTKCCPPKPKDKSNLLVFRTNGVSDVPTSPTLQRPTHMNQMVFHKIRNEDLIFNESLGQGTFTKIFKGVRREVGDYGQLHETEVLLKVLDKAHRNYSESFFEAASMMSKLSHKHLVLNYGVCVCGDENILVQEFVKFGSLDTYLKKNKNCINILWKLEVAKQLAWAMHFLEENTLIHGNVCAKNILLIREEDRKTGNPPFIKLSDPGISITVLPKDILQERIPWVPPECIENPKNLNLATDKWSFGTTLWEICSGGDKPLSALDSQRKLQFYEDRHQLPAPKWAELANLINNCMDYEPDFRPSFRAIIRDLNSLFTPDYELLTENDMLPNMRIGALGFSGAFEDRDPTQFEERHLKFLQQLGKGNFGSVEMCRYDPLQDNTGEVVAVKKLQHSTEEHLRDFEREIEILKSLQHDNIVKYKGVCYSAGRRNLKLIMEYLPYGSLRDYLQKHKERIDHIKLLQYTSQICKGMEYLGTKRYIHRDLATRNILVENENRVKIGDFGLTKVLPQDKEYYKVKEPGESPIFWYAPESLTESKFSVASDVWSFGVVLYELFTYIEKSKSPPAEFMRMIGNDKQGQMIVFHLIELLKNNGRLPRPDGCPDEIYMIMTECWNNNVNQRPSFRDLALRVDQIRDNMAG
T2 sequence (P29597 whole entry): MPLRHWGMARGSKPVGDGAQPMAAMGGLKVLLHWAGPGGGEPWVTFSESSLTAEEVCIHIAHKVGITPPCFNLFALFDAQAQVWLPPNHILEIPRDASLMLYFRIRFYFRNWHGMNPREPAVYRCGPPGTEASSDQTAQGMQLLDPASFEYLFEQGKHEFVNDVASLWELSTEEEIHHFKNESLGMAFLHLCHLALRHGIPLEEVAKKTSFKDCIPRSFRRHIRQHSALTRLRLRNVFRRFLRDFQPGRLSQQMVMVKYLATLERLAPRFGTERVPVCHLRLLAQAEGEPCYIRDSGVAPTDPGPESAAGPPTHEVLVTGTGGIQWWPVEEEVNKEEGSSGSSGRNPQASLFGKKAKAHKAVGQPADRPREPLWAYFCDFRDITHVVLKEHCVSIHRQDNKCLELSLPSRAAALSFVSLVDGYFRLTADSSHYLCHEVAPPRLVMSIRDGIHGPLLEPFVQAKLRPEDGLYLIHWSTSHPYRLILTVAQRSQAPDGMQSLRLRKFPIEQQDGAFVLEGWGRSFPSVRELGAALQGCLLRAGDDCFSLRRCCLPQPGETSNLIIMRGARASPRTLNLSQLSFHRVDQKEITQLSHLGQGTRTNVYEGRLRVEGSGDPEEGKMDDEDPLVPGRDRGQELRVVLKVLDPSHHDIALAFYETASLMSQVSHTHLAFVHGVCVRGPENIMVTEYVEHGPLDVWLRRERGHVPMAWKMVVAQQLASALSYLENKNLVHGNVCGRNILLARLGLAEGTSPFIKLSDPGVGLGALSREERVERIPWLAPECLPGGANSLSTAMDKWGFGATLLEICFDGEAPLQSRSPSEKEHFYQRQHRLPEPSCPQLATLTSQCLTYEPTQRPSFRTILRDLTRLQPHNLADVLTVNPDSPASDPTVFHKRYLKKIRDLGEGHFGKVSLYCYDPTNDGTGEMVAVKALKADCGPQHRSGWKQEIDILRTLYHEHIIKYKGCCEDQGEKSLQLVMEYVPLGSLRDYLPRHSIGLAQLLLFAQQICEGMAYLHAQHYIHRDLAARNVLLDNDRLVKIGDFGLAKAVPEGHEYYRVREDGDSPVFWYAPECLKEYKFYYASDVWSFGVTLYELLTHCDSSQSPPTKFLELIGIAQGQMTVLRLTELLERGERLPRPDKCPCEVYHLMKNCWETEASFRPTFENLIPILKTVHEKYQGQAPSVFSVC
T4 sequence (P23458 whole entry): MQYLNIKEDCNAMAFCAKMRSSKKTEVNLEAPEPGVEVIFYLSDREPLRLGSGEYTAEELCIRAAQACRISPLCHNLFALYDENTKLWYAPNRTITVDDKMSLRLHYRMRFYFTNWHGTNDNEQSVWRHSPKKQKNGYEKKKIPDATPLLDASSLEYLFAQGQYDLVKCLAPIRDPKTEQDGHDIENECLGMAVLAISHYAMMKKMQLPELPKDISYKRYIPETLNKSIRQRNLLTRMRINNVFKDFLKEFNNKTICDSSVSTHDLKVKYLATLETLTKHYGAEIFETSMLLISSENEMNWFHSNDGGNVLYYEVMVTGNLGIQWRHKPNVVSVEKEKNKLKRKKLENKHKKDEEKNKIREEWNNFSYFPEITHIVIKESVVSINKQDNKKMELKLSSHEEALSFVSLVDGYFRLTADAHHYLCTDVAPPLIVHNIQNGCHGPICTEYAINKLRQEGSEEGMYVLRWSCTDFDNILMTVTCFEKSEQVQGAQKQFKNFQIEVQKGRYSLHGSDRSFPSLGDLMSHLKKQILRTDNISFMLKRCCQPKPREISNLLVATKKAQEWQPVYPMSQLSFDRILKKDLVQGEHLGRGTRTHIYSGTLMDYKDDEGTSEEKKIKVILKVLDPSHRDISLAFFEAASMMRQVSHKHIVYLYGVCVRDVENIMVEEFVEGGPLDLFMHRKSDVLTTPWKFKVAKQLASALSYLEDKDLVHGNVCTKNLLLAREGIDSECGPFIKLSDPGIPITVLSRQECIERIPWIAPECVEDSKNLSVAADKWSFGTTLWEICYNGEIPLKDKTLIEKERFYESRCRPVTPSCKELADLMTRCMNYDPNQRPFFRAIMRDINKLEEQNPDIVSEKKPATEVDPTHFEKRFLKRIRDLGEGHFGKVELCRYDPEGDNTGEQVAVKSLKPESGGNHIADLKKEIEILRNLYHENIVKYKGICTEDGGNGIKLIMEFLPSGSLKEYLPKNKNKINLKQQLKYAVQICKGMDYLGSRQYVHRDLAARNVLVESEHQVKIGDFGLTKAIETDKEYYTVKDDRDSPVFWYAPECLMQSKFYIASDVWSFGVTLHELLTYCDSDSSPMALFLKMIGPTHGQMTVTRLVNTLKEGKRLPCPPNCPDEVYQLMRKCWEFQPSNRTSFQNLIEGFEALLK

Row | inhibition at 1 µM (JAK3) [%] | inhibition at 1 µM (TYK2) [%] | inhibition at 1 µM (JAK2) [%] | inhibition at 1 µM (JAK1) [%] | SMILES
1 | 100 | 99 | 99 | 99 | CC(C1CC1)n1cc(-c2cc(N3CCOCC3)n(C)n2)c2[nH]nc(N)c2c1=O (racemic) [Example 4, 3-amino-5-(1-cyclopropylethyl)-7-(1-methyl-5-(morpholin-4-yl)-1H-pyrazol-3-yl)-1,5-dihydro-4H-pyrazolo[4,3-c]pyridin-4-one]
2 | 100 | 100 | 100 | 99 | Cn1nc(-c2cn(C3CCCC3(C)C)c(=O)c3c(N)n[nH]c23)cc1CN1CCS(=O)(=O)CC1 (racemic) [Example 72, 3-amino-5-(2,2-dimethylcyclopentyl)-7-(5-((1,1-dioxidothiomorpholin-4-yl)methyl)-1-methyl-1H-pyrazol-3-yl)-1,5-dihydro-4H-pyrazolo[4,3-c]pyridin-4-one]
3 | 100 | 100 | 99 | 99 | Cn1nc(-c2cn(C3CCCC3(C)C)c(=O)c3c(N)n[nH]c23)cc1N1CCOCC1 (racemic) [Example 73, 3-amino-5-(2,2-dimethylcyclopentyl)-7-(1-methyl-5-(morpholin-4-yl)-1H-pyrazol-3-yl)-1,5-dihydro-4H-pyrazolo[4,3-c]pyridin-4-one]
4 | 99 | 100 | 98 | 98 | CC(C)C(C#N)n1cc(-c2cc(N3CCOCC3)n(C)n2)c2[nH]nc(N)c2c1=O (racemic) [Example 112, 2-(3-amino-7-(1-methyl-5-(morpholin-4-yl)-1H-pyrazol-3-yl)-4-oxo-1,4-dihydro-5H-pyrazolo[4,3-c]pyridin-5-yl)-3-methylbutanenitrile]
5 | 101 | 102 | 100 | 101 | CC1CCCCC1n1cc(-c2cc(C(C)(C)O)n(C)n2)c2[nH]nc(N)c2c1=O (racemic) [Example 116, 3-amino-7-(5-(2-hydroxypropan-2-yl)-1-methyl-1H-pyrazol-3-yl)-5-(2-methylcyclohexyl)-1,5-dihydro-4H-pyrazolo[4,3-c]pyridin-4-one]
6 | 100 | 100 | 99 | 99 | CC1CCCCC1n1cc(-c2cc(N3CCOCC3)n(C)n2)c2[nH]nc(N)c2c1=O (racemic) [Example 146, 3-amino-5-(2-methylcyclohexyl)-7-(1-methyl-5-(morpholin-4-yl)-1H-pyrazol-3-yl)-1,5-dihydro-4H-pyrazolo[4,3-c]pyridin-4-one]
7 | 100 | 99 | 98 | 97 | CC(C)[C@H](C)n1cc(-c2cc(C(C)(C)O)n(C)n2)c2[nH]nc(N)c2c1=O [Example 1, 3-amino-7-(5-(2-hydroxypropan-2-yl)-1-methyl-1H-pyrazol-3-yl)-5-((2S)-3-methylbutan-2-yl)-1,5-dihydro-4H-pyrazolo[4,3-c]pyridin-4-one]
8 | 99 | 99 | 98 | 97 | CC(C)C(C)n1cc(-c2cc(C(C)(C)O)n(C)n2)c2[nH]nc(N)c2c1=O (centres unmarked) [Example 2, 3-amino-7-(5-(2-hydroxypropan-2-yl)-1-methyl-1H-pyrazol-3-yl)-5-(3-methylbutan-2-yl)-1,5-dihydro-4H-pyrazolo[4,3-c]pyridin-4-one]
9 | 100 | 100 | 99 | 98 | CC(C)[C@H](C)n1cc(-c2cc(C(C)(C)CO)n(C)n2)c2[nH]nc(N)c2c1=O [Example 3, 3-amino-7-(5-(1-hydroxy-2-methylpropan-2-yl)-1-methyl-1H-pyrazol-3-yl)-5-((2S)-3-methylbutan-2-yl)-1,5-dihydro-4H-pyrazolo[4,3-c]pyridin-4-one]
10 | 100 | 100 | 100 | 99 | C[C@@H](C1CC1)n1cc(-c2cc(N3CCOCC3)n(C)n2)c2[nH]nc(N)c2c1=O [Example 5, 3-amino-5-((1S)-1-cyclopropylethyl)-7-(1-methyl-5-(morpholin-4-yl)-1H-pyrazol-3-yl)-1,5-dihydro-4H-pyrazolo[4,3-c]pyridin-4-one]
11 | 98 | 100 | 93 | 96 | C[C@H](C1CC1)n1cc(-c2cc(N3CCOCC3)n(C)n2)c2[nH]nc(N)c2c1=O [Example 6, 3-amino-5-((1R)-1-cyclopropylethyl)-7-(1-methyl-5-(morpholin-4-yl)-1H-pyrazol-3-yl)-1,5-dihydro-4H-pyrazolo[4,3-c]pyridin-4-one]
